This assay addresses T1, LmxCLK1 (Leishmania mexicana, UniProt E9AMP2).
T1 sequence (E9AMP2 1-422): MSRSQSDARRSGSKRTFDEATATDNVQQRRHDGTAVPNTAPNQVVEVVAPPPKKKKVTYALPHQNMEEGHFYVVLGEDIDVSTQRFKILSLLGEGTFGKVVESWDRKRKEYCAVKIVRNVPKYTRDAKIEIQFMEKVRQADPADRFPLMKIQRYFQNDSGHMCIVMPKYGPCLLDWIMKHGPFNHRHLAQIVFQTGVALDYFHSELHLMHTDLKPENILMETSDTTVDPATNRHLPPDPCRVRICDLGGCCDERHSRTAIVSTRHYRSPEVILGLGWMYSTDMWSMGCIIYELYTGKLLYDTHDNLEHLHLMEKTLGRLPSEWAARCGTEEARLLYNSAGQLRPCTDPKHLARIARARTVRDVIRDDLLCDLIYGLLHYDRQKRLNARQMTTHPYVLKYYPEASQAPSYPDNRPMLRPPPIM
Briefly: biochemical. The class given is binding.

[1] abbreviates: DSF, 10 µM compound, 2 µM LmxCLK1, Run 1.
Where [2] appears, read: DSF, 10 µM compound, 2 µM LmxCLK1, Run 2.
Setting [3] is: DSF, 10 µM compound, 2 µM LmxCLK1, mean of two runs.
Where [4] appears, read: DSF, 10 µM compound, 2 µM LmxCLK1, Run 1, read-out: ΔTm Run 1.
Where [5] appears, read: DSF, 10 µM compound, 2 µM LmxCLK1, Run 2, read-out: ΔTm Run 2.
The mark [6] stands for this setting: DSF, 10 µM compound, 2 µM LmxCLK1, mean of two runs, read-out: ΔTm Average.

As usually defined, the ΔTm is the change in melting temperature against a reference sample.

Where two headings read alike, the source gives them in different places.

In the case of `COc1ccccc1-c1cc(Nc2cccc(CS(N)(=O)=O)c2)ncn1` [LDC000067], the “ΔTm Run 1” value under setting [1] was -0.1 °C. The “ΔTm Run 2” value under setting [2] was 0.0 °C. Under setting [3], the “ΔTm Average” value was -0.1 °C.
As for `Cc1cc(Nc2ncc(Cl)c(Nc3ccccc3S(=O)(=O)C(C)C)n2)c(OC(C)C)cc1C1CCNCC1` [LDK378], the ΔTm at 10 µM by setting is: under setting [4], 0.4 °C; under setting [5], 0 °C; under setting [6], 0.2 °C.
As for `COc1ncccc1-c1cnn2ccc(N3CCN(C(=O)OC(C)C)CC3)nc12` [LP-935509 (AAK1)], the “ΔTm Run 1” value under setting [1] was -0.2 °C. Also, the “ΔTm Run 2” value under setting [2] was -0.4 °C. For the same molecule, the “ΔTm Average” value under setting [3] is -0.3 °C.
For the molecule `O=c1cc(N2CCOCC2)oc2c(-c3ccccc3)cccc12` [LY294002], the ΔTm at 10 µM amounted to 0.5 °C under setting [4], 0.2 °C under setting [5] and 0.3 °C under setting [6].
Taken in the same sequence, the figures for `CC(C)(C)Cn1c(N)nc2ccc(-c3[nH]c(C(C)(C)C)nc3-c3ccc(F)cc3)nc21` [LY2228820] were -0.3 °C, -0.3 °C and -0.3 °C.
Taken in the same sequence, the figures for `Cc1cc(Nc2cc(CN3CCOCC3)c3nc(C)c(Cc4ccc(Cl)cc4F)n3n2)n[nH]1` [LY2784544] were -0.3 °C, -0.4 °C and -0.4 °C.
Taken in the same sequence, the figures for `CCN1CCN(Cc2ccc(Nc3ncc(F)c(-c4cc(F)c5nc(C)n(C(C)C)c5c4)n3)nc2)CC1` [LY2835219] were 2.2 °C, 2.1 °C and 2.2 °C.
In the case of `CS(=O)(=O)CCNCc1ccc(-c2ccc3ncnc(Nc4ccc(OCc5cccc(F)c5)c(Cl)c4)c3c2)o1.Cc1ccc(S(=O)(=O)O)cc1.Cc1ccc(S(=O)(=O)O)cc1` [Lapatinib (GW-572016) Ditosylate], the “ΔTm Run 1” value under setting [1] worked out at 0.3 °C. Also, the “ΔTm Run 2” value under setting [2] stood at 0.0 °C. The “ΔTm Average” value under setting [3] worked out at 0.1 °C.
For `COc1cc2nccc(Oc3ccc(NC(=O)NC4CC4)c(Cl)c3)c2cc1C(N)=O` [Lenvatinib (E7080)], the “ΔTm Run 1” value under setting [1] was -0.1 °C. Also, under setting [2], the “ΔTm Run 2” value was -0.4 °C. Moreover, the “ΔTm Average” value under setting [3] is -0.3 °C.
The matching figures for `Cc1ccc(F)c(NC(=O)Nc2ccc(-c3cccc4[nH]nc(N)c34)cc2)c1` [Linifanib (ABT-869)]: 0.3 °C, 0.6 °C and 0.4 °C.
As to `Cc1c(F)cc(C(=O)NC2CC2)cc1-c1ccc(C(=O)NCC(C)(C)C)cn1` [Losmapimod (GW856553X)], the “ΔTm Run 1” value under setting [1] came to 0.4 °C. For the same molecule, under setting [2], the “ΔTm Run 2” value is 0.1 °C. The “ΔTm Average” value under setting [3] was found to be 0.2 °C.
Taken in the same sequence, the figures for `Cn1cnc2c(F)c(Nc3ccc(Br)cc3F)c(C(=O)NOCCO)cc21` [MEK162 (ARRY-162)] were -0.2 °C, -0.4 °C and -0.3 °C.
On to `COCCNCc1ccc(-c2cc3nccc(Oc4ccc(NC(=S)NC(=O)Cc5ccc(F)cc5)cc4F)c3s2)nc1` [MGCD-265], for which the ΔTm at 10 µM runs as follows: under setting [4], 0 °C; under setting [5], -0.1 °C; under setting [6], -0.1 °C.
In the case of `Cl.Cl.NC1(c2ccc(-c3nc4ccn5c(=O)[nH]nc5c4cc3-c3ccccc3)cc2)CCC1` [MK-2206 2HCl], the “ΔTm Run 1” value under setting [1] was -0.1 °C. Besides, the “ΔTm Run 2” value under setting [2] is -0.1 °C. Besides, under setting [3], the “ΔTm Average” value was -0.1 °C.
With `O=C(c1cccc(Cl)c1F)N1CCN(Cc2cccc(Nc3nccs3)n2)CC1` [MK-8745], the “ΔTm Run 1” value under setting [1] turned out to be 1.1 °C. The “ΔTm Run 2” value under setting [2] turned out to be 1.0 °C. In addition, under setting [3], the “ΔTm Average” value was 1.0 °C.
`Cn1cc(-c2cnn3c(N)c(Br)c([C@@H]4CCCNC4)nc23)cn1` [MK-8776 (SCH 900776)]: the ΔTm Average amounted to 0.3 °C, the ΔTm Run 1 was 0.5 °C and the ΔTm Run 2 was 0 °C.
Regarding `O=C(O)c1ccc(Nc2ncc3c(n2)-c2ccc(Cl)cc2C(c2c(F)cccc2F)=NC3)cc1` [MLN8054], the ΔTm at 10 µM stood at 0.3 °C under setting [4], 0.1 °C under setting [5] and 0.2 °C under setting [6].
Turning to `Cc1ccc(NC(=O)c2ccc(CN3CCN(C)CC3)cc2)cc1Nc1nc(-c2cccnc2)cs1` [Masitinib (AB1010)], under setting [1], the “ΔTm Run 1” value stood at 0.3 °C. In addition, the “ΔTm Run 2” value under setting [2] is 0.2 °C. For the same molecule, the “ΔTm Average” value under setting [3] worked out at 0.2 °C.
`CNC(=O)c1nn(C)c2c1C(C)(C)Cc1cnc(Nc3ccc(N4CCN(C)CC4)cc3)nc1-2` [Milciclib (PHA-848125)]: under setting [1], the “ΔTm Run 1” value amounted to 0.1 °C. Moreover, under setting [2], the “ΔTm Run 2” value is -0.2 °C. Also, the “ΔTm Average” value under setting [3] was found to be 0.0 °C.
Consider `CC1(C)CNc2cc(NC(=O)c3cccnc3NCc3ccncc3)ccc21.O=P(O)(O)O.O=P(O)(O)O` [Motesanib Diphosphate (AMG-706)], for which the “ΔTm Run 1” value under setting [1] is 0.3 °C. Besides, the “ΔTm Run 2” value under setting [2] stood at 0.1 °C. Besides, the “ΔTm Average” value under setting [3] came to 0.2 °C.
As for `FC(F)(F)c1ccc(/C=C/c2nc(COc3ccc(CCCCn4ccnn4)cc3)co2)cc1` [Mubritinib (TAK 165)], the ΔTm Average was 0.2 °C, the ΔTm Run 1 turned out to be 0.4 °C and the ΔTm Run 2 was determined as 0 °C.
Turning to `CN1CCN(c2ccc(OC(F)(F)F)c(Nc3ncc4c(n3)-c3c(c(C(N)=O)nn3CCO)CC4)c2)CC1` [NMS-P937 (NMS1286937)], the “ΔTm Run 1” value under setting [1] was found to be 0.0 °C. In addition, the “ΔTm Run 2” value under setting [2] was found to be 0.0 °C. Moreover, under setting [3], the “ΔTm Average” value stood at 0.0 °C.
In the case of `CCN(CC)CCCC(C)Nc1nc(C)cc(Nc2ccc3nc(C)cc(N)c3c2)n1` (stereo not drawn) [NSC 23766], the “ΔTm Run 1” value under setting [1] was determined as 0.0 °C. For the same molecule, under setting [2], the “ΔTm Run 2” value was -0.1 °C. Under setting [3], the “ΔTm Average” value was 0.0 °C.
Take `Nc1nc(N)c(N=O)c(OCC2CCCCC2)n1` [NU6027]: the ΔTm at 10 µM is 0 °C (read-out: ΔTm Average), 0.1 °C (read-out: ΔTm Run 1) and -0.2 °C (read-out: ΔTm Run 2).
On to `O=c1cc(N2CCOCC2)oc2c(-c3cccc4c3sc3ccccc34)cccc12` [NU7441 (KU-57788)], for which, under setting [1], the “ΔTm Run 1” value came to 0.0 °C. Further, under setting [2], the “ΔTm Run 2” value was -0.2 °C. Moreover, under setting [3], the “ΔTm Average” value is -0.1 °C.
Taken in the same sequence, the figures for `Nc1ncnc2c1c(-c1cccc(OCc3ccccc3)c1)cn2C1CC(CN2CCCC2)C1` (stereo not drawn) [NVP-ADW742] were 0.0 °C, -0.2 °C and -0.1 °C.
Take `Nc1ncnc2c1c(-c1cccc(OCc3ccccc3)c1)cn2[C@H]1C[C@@H](CN2CCC2)C1` [NVP-AEW541]: the ΔTm at 10 µM is 0.1 °C under setting [4], -0.1 °C under setting [5] and 0 °C under setting [6].
Regarding `Cc1ccc(C(=O)Nc2cccc(C(F)(F)F)c2)cc1Nc1nc(-c2cccnc2)nc2c1cnn2C` [NVP-BHG712], the “ΔTm Run 1” value under setting [1] amounted to 0.1 °C. Besides, under setting [2], the “ΔTm Run 2” value is -0.3 °C. Besides, the “ΔTm Average” value under setting [3] is -0.1 °C.
As to `Cl.Cl.Fc1cc(-c2cccc3ncc(-c4cnn(C5CCNCC5)c4)nc23)cc(F)c1CN1CCOCC1` [NVP-BSK805 2HCl], the “ΔTm Run 1” value under setting [1] stood at 0.9 °C. Besides, the “ΔTm Run 2” value under setting [2] is 0.7 °C. Also, under setting [3], the “ΔTm Average” value came to 0.8 °C.
Consider `Cn1cc(-c2ccc3ncc(Cc4ccc5ncccc5c4)n3n2)cn1` [NVP-BVU972], for which the “ΔTm Run 1” value under setting [1] amounted to 0.3 °C. Also, under setting [2], the “ΔTm Run 2” value amounted to 0.0 °C. In addition, the “ΔTm Average” value under setting [3] turned out to be 0.2 °C.

Values taken from paper PMC7619385 (ACS infectious diseases, 2025).
